Experimental data published in ChEMBL document CHEMBL5385900, “New insights in the development of positive allosteric modulators of α-amino-3-hydroxy-5-methyl-4-isoxazolepropionic acid (AMPA) receptors belonging to 3,4-dihydro-2H-1,2,4-benzothiadiazine 1,1-dioxides: Introduction of (mono/difluoro)methyl groups at the 2-position of the thiadiazine ring” (Eur J Med Chem, 2023).
Calls of active or inactive are those of the source. No cut-off for these calls is given here.

What was measured:
[1] = Toxicity in NMR1 mouse assessed as pro-convulsant effect at 30 mg/kg, po; format: organism-based; conditions: in vivo
Rattus norvegicus = assay: Cognition enhancing effect in Wistar rat assessed as increase in long-term potentiation of synaptic response at 10 mg/kg, ip pretreated for 1 hr followed by tetanic stimulation and measured for 3 hrs; format: functional, organism-based; conditions: time 4.0 hrs
[2] = Toxicity in NMR1 mouse assessed as pro-convulsant effect at 100 mg/kg, po; format: organism-based; conditions: in vivo
Mus musculus [3] = assay: Cognition enhancing effect in CD1 mouse assessed as increase in exploration time for novel object at 1 mg/kg, po after 1 hr by object recognition test (reference value: 40%); format: functional
[4] = molecular target: T1, Glutamate receptor ionotropic, AMPA (Rattus norvegicus) (UniProt P19491+P19492+P19493+P19490); assay: Positive allosteric modulation at AMPAR in rat hippocampal assessed as increase in AMPA induced noradrenaline release; set-up: concentration or dose not given beside the values
Mus musculus [5] = assay: Cognition enhancing effect in CD1 mouse assessed as increase in exploration time for novel object at 3 mg/kg, po after 1 hr by object recognition test (reference value: 40%); format: functional
[6] = molecular target: T1, Glutamate receptor ionotropic, AMPA (Rattus norvegicus); assay: Positive allosteric modulation at AMPAR in rat primary cortical cells assessed as concentration required for 2 fold increase in AMPA induced current amplitude by FlipR assay; format: cell-based; conditions: Primary cortical neuron, filed as positive allosteric modulator
[7] = molecular target: Glutamate receptor ionotropic AMPA (Homo sapiens) (UniProt P48058+P42263+P42262+P42261); assay: Positive allosteric modulation at AMPAR in HEK293 cells expressing GluA2Q assessed as glutamate induced calcium influx relative to control; format: cell-based; conditions: filed as positive allosteric modulator
[8] = molecular target: T1, Glutamate receptor ionotropic, AMPA (Rattus norvegicus); assay: Positive allosteric modulation at AMPAR in rat primary cortical cells assessed as concentration required for 2 fold increase in AMPA induced current amplitude by FDSS fluorescence assay; format: cell-based; conditions: Primary cortical neuron, filed as positive allosteric modulator
[9] = molecular target: Glutamate receptor ionotropic AMPA (Homo sapiens, UniProt P42261+P42262+P42263+P48058); assay: Positive allosteric modulation at AMPAR in HEK293 cells expressing GluA2Q assessed as glutamate induced calcium influx; format: cell-based
[10] = molecular target: T1, Glutamate receptor ionotropic, AMPA (Rattus norvegicus); assay: Positive allosteric modulation at AMPAR in rat hippocampal assessed as increase in AMPA induced noradrenaline release by measuring concentration required for 2 fold increase in noradrenaline release; conditions: filed as positive allosteric modulator
Mus musculus [11] = assay: Cognition enhancing effect in C57BL/6 mouse assessed as increase in performance of spontaneous alteration at 0.1 mg/kg, ip after 1 hr by T-maze test; format: functional, organism-based
Mus musculus [12] = assay: Cognition enhancing effect in C57BL/6 mouse assessed as increase in performance of spontaneous alteration at 0.3 mg/kg, ip after 1 hr by T-maze test; format: functional, organism-based
[13] = filed as positive allosteric modulator

| Activity [4, 13] [%] | EC [6] [µM] | EC [8] [µM] | EC50 [9] [µM] | SMILES | other results |
| --- | --- | --- | --- | --- | --- |
| 394 | 2.1 | 1.5 | 2.19 | O=S1(=O)c2cc(Cl)ccc2N(C2CC2)CN1CF | Activity [1]: Non-Toxic; Activity (Rattus norvegicus): Active; Activity [2]: Non-Toxic; Activity (Mus musculus [3]): 64%; Activity (Mus musculus [5]): 78%; Emax [7]: 90%; EC [10]: 5 µM; Activity (Mus musculus [11]): Active |
| 345 | 6.9 |  | 16.6 | O=S1(=O)c2cc(F)ccc2N(C2CC2)CN1C(F)F |  |
|  | 9.3 |  | 57.5 | CN1CN(C2CC2)c2ccc(F)cc2S1(=O)=O | Activity [4]: < 100% |
| 329 | 2.5 |  | 2.14 | CC1N(C2CC2)c2ccc(Cl)cc2S(=O)(=O)N1CF (centres undefined) |  |
| 340 |  | 6 | > 100 | O=S1(=O)c2cc(Cl)ccc2N(C2CC2)CN1C(F)F |  |
|  | 70.9 |  | > 100 | CC1N(C2CC2)c2ccc(F)cc2S(=O)(=O)N1C (centres undefined) | Activity [4]: < 100% |
|  |  | 12.2 | > 100 | CCN1c2ccc(Cl)cc2S(=O)(=O)N(CC)C1C (centres undefined) | Activity [4]: < 100% |
|  | 65 |  | > 100 | CC1N(C2CC2)c2ccc(Cl)cc2S(=O)(=O)N1C (centres undefined) | Activity [4]: < 100% |
| 103 | 6.2 |  | 31.6 | CCN1c2ccc(Cl)cc2S(=O)(=O)N(C)C1C (centres undefined) |  |
| 230 | 0.2 | 0.3 | 0.275 | O=S1(=O)NCN(C2CC2)c2ccc(F)cc21 |  |
| 135 |  | 1.4 | 8.71 | CCN1c2ccc(F)cc2S(=O)(=O)N(C)C1C (centres undefined) |  |
|  |  | 11.2 | > 100 | CCN1C(C)N(C)c2ccc(Cl)cc2S1(=O)=O (centres undefined) | Activity [4]: < 100% |
| 427 | 0.6 |  | 0.282 | O=S1(=O)c2cc(F)ccc2N(C2CC2)CN1CF |  |
|  | 13.4 |  | > 100 | CN1CN(C2CC2)c2ccc(Cl)cc2S1(=O)=O |  |
| 112 | 4.3 | 0.8 | 81.3 | CC1N(C)c2ccc(Cl)cc2S(=O)(=O)N1C (centres undefined) |  |
| 167 | 4.1 |  | 15.1 | CC1N(C)c2ccc(F)cc2S(=O)(=O)N1C (centres undefined) |  |
| 311 | 2.2 | 0.7 | 0.794 | O=S1(=O)NCN(C2CC2)c2ccc(Cl)cc21 | Activity [1]: Non-Toxic; Activity (Rattus norvegicus): Active; Activity (Mus musculus [3]): 82%; Activity (Mus musculus [5]): 79%; Emax [7]: 100%; Activity (Mus musculus [12]): Active; EC [10]: 4.5 µM |
